Laboratory results as given in patent publication US9181234B2, “Antibacterial compounds” (priority 2010, dated 2015).
Values after ≈ are worked out from the molar mass of the structure shown.

Tests used:
[1] = Pharmacokinetic assay, IV and oral PK profile, mouse; format: in vivo; settings: plasma; for bioavailability: [AUCoral/AUCiv]×100%, 3 mg/kg, read-out: F (%) bioavailability
Experimental: (§1) Pharmacokinetic Assays: Determination of PK Profile
(§2) The pharmacokinetic profiles of compounds were determined by measuring the compound concentration in plasma by LC/MS/MS following a single intravenous or peroral administration of the compounds at a dose of 3 mg/kg. The concentrations described are the mean plasma concentrations at each time point from three animals. Intravenous dose formulation was administered as a single bolus dose through the tail vein. Oral dose formulation was administered to animals by an oral gavage needle. In both cases the dose volume was 5.0 mL/kg. Blood was collected from rats using a jugular vein catheter and from anesthetized mice through a capillary guided into the retro-orbital plexus. The collected blood was centrifuged to obtain plasma and the compounds extracted into methanol prior to determining the compound concentration by LC/MS/MS. The results for selected compounds of the invention are shown in FIGS. 2 to 8 where the X axis denotes time (hours) and the Y axis denotes plasma concentration (ng/mL). The Cmaxoral (μg/mL), AUCiv (μg·hr/mL), AUCoral (μg.hr/mL) and F(%) values are provided in the following table where Cmaxoral is the maximum oral concentration, AUC is area under the curve for intraveneous (IV) and oral and F (%) represents compound bioavailability as calculated by [AUCoral/AUCiv]×100%.

[2] = Pharmacokinetic assay, IV and oral PK profile, rat; format: in vivo; settings: plasma; for bioavailability: [AUCoral/AUCiv]×100%, 3 mg/kg, read-out: F (%) bioavailability
Experimental: as §1, §2

[3] = test system: Streptococcus pyogenes (Isolate ID ATCC 51339); assay: Antibacterial activity, MIC, S. pyogenes; format: cell-based; settings: Streptococcus pyogenes, ATCC51339, Gram positive strain; broth microdilution or agar dilution
Outline: (§3)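 Compounds are serially diluted in broth or agar as CLSI specifies for aerobically growing bacteria, and the MIC is then recorded for each strain.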

physchem = settings: kinetic from dmso stock
Outline: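 DMSO doubling dilutions were diluted twenty-fold into 100 mM citrate (pH 4), PBS (pH 7.4) or carbonate-bicarbonate (pH 9). After 24 h equilibration at room temperature, absorbance was read at 620 nm. The reported value is the highest concentration without measurable precipitate.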

[4] = test system: Staphylococcus aureus (Isolate ID ATCC 29213); assay: Antibacterial activity, MIC, S. aureus; format: cell-based; settings: Staphylococcus aureus, ATCC29213, Gram positive strain; broth microdilution or agar dilution
Outline: as §3

[5] = test system: Haemophilus influenzae (Isolate ID ATCC 49247); assay: Antibacterial activity, MIC, H. influenzae; format: cell-based; settings: Haemophilus influenzae, ATCC49247; Gram negative strain; broth microdilution or agar dilution
Outline: as §3

[6] = test system: Enterococcus faecalis (Isolate ID ATCC 29212); assay: Antibacterial activity, MIC, E. faecalis; format: cell-based; settings: Enterococcus faecalis, ATCC29212; Gram positive strain; broth microdilution or agar dilution
Outline: as §3

[7] = target: T1, Gyrase enzyme (A2B2 complex from Staphylococcus aureus) (UniProt P0A0K8); assay: Gyrase ATPase assay (S. aureus enzyme); format: biochemical; settings: enzyme source (S. aureus or E. coli) not given; 1 mM ATP, 30° C., 60 minutes; read-out: Gyrase ATPase activity (IC50)
T1 construct: 2 mU/μl Gyrase enzyme (A2B2 complex from Staphylococcus aureus); Alternatively
T1 sequence (P0A0K8 whole entry, one chain of several): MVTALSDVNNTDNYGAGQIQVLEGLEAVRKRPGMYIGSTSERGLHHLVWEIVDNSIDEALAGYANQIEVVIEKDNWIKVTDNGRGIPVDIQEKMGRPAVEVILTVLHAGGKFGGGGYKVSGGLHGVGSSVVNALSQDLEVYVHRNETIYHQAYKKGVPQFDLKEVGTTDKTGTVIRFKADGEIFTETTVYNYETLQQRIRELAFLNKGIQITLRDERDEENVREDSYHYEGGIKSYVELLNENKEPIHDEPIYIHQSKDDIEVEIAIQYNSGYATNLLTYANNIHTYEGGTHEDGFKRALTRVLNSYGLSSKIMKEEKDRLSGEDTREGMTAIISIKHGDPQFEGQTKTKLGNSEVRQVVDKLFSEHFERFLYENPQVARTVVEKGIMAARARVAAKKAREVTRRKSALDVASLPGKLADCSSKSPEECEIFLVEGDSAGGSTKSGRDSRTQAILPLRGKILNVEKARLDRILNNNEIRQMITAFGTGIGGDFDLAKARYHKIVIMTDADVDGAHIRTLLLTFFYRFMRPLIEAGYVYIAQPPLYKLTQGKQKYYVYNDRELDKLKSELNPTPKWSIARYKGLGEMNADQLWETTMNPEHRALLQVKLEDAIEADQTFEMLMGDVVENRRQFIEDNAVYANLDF
Experimental: On-Target Enzyme Assay: Determination of Gyrase ATPase Activity
Gyrase converts ATP into ADP and inorganic phosphate. The released phosphate can be detected by the addition of malachite green solution and measured by monitoring the increase in absorbance at 600 nm. The ATPase assay is carried out in a buffer containing 2 mU/μl Gyrase enzyme (A2B2 complex from Staphylococcus aureus), 0.08 mg/ml double-stranded DNA, 8 mM HEPES.KOH pH 7.6, 100 mM K glutamate, 2 mM Mg acetate, 2 mM DTT, 0.01 mg/ml BSA, and 5% DMSO solution containing the inhibitor. Alternatively, the ATPase assay is carried out in a buffer containing 4.8 μg/mL Gyrase enzyme (A2B2 complex from Escherichia coli), 0.08 μg/mL ssDNA, 35 mM Tris pH 7.5, 24 mM KCl, 2 mM MgCl2, 6.5% Glycerol, 2 mM DTT, 1.8 mM Spermidine, 0.5 mg/mL BSA and 5% DMSO solution containing the inhibitor. The reaction is started by adding ATP to a final concentration of 1 mM and allowed to incubate at 30° C. for 60 minutes. The reaction is stopped by adding […] of malachite green solution (0.034% malachite green, 10 mM ammonium molybdate, 1 M HCl, 3.4% ethanol, 0.01% tween 20). Colour is allowed to develop for 5 minutes and the absorbance at 600 nm is measured spectrophotometrically. The IC50 values are determined from the absorbance readings using no compound and no enzyme controls.

[8] = po, single peroral dose 3 mg/kg, read-out: AUCoral
[9] = single intravenous dose 3 mg/kg, read-out: AUCiv
[10] = pH 7.4, aqueous buffer, Max Solubility
[11] = pH 7.4, aqueous buffer, Solubility (pH 7.4)
[12] = pH 7.4, aqueous buffer, Solubility Range
[13] = pH 7.4, aqueous buffer, Solubility Range (maximum solubility)

SMILES | bioavailability ([1]; po) [%] | AUC [1, 8] [ng·h/mL] | AUC [1, 9] [ng·h/mL] | Cmaxoral ([1]; single peroral dose 3 mg/kg) [ng/mL] | bioavailability ([2]; po) [%] | AUC [2, 8] [ng·h/mL] | AUC [2, 9] [ng·h/mL] | Cmaxoral ([2]; single peroral dose 3 mg/kg) [ng/mL] | MIC [3] [µg/mL] | solubility at 24 h (physchem; [10]) [µg/mL] | solubility at 24 h (physchem; [11]) [µg/mL] | solubility at 24 h (physchem; [12]) [µg/mL] | solubility at 24 h (physchem; [13]) [µg/mL] | MIC [4] [µg/mL] | MIC [5] [µg/mL] | MIC [6] [µg/mL] | solubility at 24 h (physchem; pH 9, aqueous buffer, Max Solubility) [µg/mL] | solubility at 24 h (physchem; pH 9, aqueous buffer, Solubility Range (maximum solubility)) [µg/mL] | IC50 [7] [nM]
CCNC(=O)Nc1nc2cc(-c3ccc(N4CCC(C)(C(=O)O)CC4)nc3)cc(-c3ccccn3)c2s1 [Compound 4] | 33 | 2500 | 7600 | 1700 | 31 | 2100 | 6600 | 600 | ≤ 0.25 | ≥ 800 | ≥ 800 | > 800 | > 800 | 0.25 to 1 (≈ 0.484 to 1.94 µM) | 1 to 16 (≈ 1.94 to 31 µM) | ≤ 0.25 |  |  | 
CCNC(=O)Nc1nc2cc(-c3cnc(N4CCC(C)(C(=O)O)CC4)nc3)cc(-c3cscn3)c2s1 [Compound 21] |  |  |  |  | 14.3 | 1000 | 7100 | 400 | 0.25 to 1 (≈ 0.477 to 1.91 µM) |  | ≥ 800 | > 800 |  | ≤ 0.25 | 1 to 16 (≈ 1.91 to 30.6 µM) | ≤ 0.25 |  |  | 
CCNC(=O)Nc1nc2cc(-c3cnc(N4CCC(C)(C(=O)O)CC4)nc3)cc(/C(C)=N/OC)c2s1 [Compound 88, 1-[5-[2-(ethylcarbamoylamino)-7-[(E)-N-methoxy-C-methyl-carbonimidoyl]-1,3-benzothiazol-5-yl]pyrimidin-2-yl]-4-methyl-piperidine-4-carboxylic acid] | 56 | 3400 | 6100 | 2000 |  |  |  |  | ≤ 0.25 | ≥ 800 | ≥ 800 | > 800 | > 800 | ≤ 0.25 | 1 to 16 (≈ 1.95 to 31.3 µM) | ≤ 0.25 |  |  | 
CCNC(=O)Nc1nc2cc(-c3cnc(N4CCC(CC)(C(=O)O)CC4)nc3)cc(-c3ccccn3)c2s1 [Compound 98] | 87 | 12500 | 14300 | 6100 | 80.4 | 22200 | 27700 | 3500 | ≤ 0.25 |  | ≥ 800 | > 800 |  | ≤ 0.25 | 1 to 16 (≈ 1.88 to 30.1 µM) | ≤ 0.25 |  |  | 
CCNC(=O)Nc1nc2cc(-c3ccc(N4CCC(CC)(C(=O)O)CC4)nc3)cc(-c3ccccn3)c2s1 [Compound 103] |  |  |  |  | 76.5 | 22200 | 29000 | 5700 | ≤ 0.25 |  | 400 (≈ 754 µM) | 400 to 800 (≈ 754 to 1510 µM) |  | ≤ 0.25 | 1 to 16 (≈ 1.88 to 30.2 µM) | ≤ 0.25 | ≥ 800 | > 800 | 
C=CCC1(C(=O)O)CCN(c2ncc(-c3cc(-c4ccccn4)c4sc(NC(=O)NCC)nc4c3)cn2)CC1 [Compound 136] | 83 | 16500 | 20000 | 4400 | 95.9 | 34800 | 36300 | 5500 | ≤ 0.25 | ≥ 800 | ≥ 800 | > 800 | > 800 | ≤ 0.25 | 1 to 16 (≈ 1.84 to 29.4 µM) | ≤ 0.25 |  |  | 
CCNC(=O)Nc1nc2cc(-c3cnc(N4CCC(COC)(C(=O)O)CC4)nc3)cc(-c3ccccn3)c2s1 [Compound 141] |  |  |  |  | 8.9 | 700 | 8300 | 300 | ≤ 0.25 | ≥ 800 | ≥ 800 | > 800 | > 800 | ≤ 0.25 | 1 to 16 (≈ 1.83 to 29.2 µM) | ≤ 0.25 |  |  | 
CCNC(=O)Nc1nc2cc(-c3cnc(N4CCC(C(=O)O)(C5CC5)CC4)nc3)cc(-c3ccccn3)c2s1 [Compound 143] |  |  |  |  | 10 | 4700 | 46900 | 700 | ≤ 0.25 | ≥ 800 | ≥ 800 | > 800 | > 800 | ≤ 0.25 | 1 to 16 (≈ 1.84 to 29.4 µM) | ≤ 0.25 |  |  | 
CCNC(=O)Nc1nc2c(F)c(-c3cnc(N4CCC(C)(C(=O)O)CC4)nc3)cc(-c3ccccn3)c2s1 [Compound 161, 1-[5-[2-(ethylcarbamoylamino)-4-fluoro-7-(2-pyridyl)-1,3-benzothiazol-5-yl]pyrimidin-2-yl]-4-methyl-piperidine-4-carboxylic acid] |  |  |  |  | 87 | 4200 | 4800 | 700 | ≤ 0.25 | ≥ 800 | ≥ 800 | > 800 | > 800 | ≤ 0.25 | 0.25 to 1 (≈ 0.467 to 1.87 µM) | ≤ 0.25 |  |  | 
CCNC(=O)Nc1nc2cc(-c3cnc(N4CCC(CC)(C(=O)OCC)CC4)nc3)cc(-c3cnc(N4CCC(CC)(C(=O)OCC)CC4)nc3)c2o1 [Compound 234, Diethyl 1,1′-({2-[(ethylcarbamoyl)amino]-1,3-benzoxazole-5,7-diyl}dipyrimidine-5,2-diyl)bis(4-ethylpiperidine-4-carboxylate)] |  |  |  |  |  |  |  |  | > 16 |  |  |  |  | > 16 |  |  |  |  | > 1370
